Values after ≈ are worked out from the molar mass of the structure shown. Bridge positions count the residues as written; N and C are the ends. Peptide text beside a SMILES is read from it.
How the values were obtained:
Calcitonin receptor [1] = target: T1, Calcitonin receptor (Homo sapiens, UniProt P30988); experiment: Displacement of 125I-Calcitonin from human CTR expressed in Baby hamster kidney cell membrane incubated for 120 mins by SPA method; type: cell membranes
T1 sequence (P30988 whole entry): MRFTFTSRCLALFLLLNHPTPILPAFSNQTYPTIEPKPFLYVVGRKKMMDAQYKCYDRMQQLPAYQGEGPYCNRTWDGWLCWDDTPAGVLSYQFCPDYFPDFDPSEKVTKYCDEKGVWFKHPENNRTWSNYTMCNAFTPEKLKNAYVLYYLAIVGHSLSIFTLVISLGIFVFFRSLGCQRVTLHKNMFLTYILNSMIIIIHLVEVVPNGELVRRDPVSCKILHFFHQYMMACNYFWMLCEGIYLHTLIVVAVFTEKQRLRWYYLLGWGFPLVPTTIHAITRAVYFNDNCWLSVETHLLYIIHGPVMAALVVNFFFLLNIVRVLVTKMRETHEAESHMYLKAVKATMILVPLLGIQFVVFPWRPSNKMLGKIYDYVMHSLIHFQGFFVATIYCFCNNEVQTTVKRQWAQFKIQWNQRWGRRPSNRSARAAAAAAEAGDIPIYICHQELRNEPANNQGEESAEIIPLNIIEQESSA

[2] = Stability against amyloid fibril formation at pH 7.5 assessed as compound recovery at 1 uM measured after 45 hrs by ThT assay; type: physicochemical; conditions: pH 7.5, 45 h
[3] = Solubility of compound at pH 6 incubated overnight by UPLC analysis; type: physicochemical; conditions: buffer
[4] = Solubility of compound at pH 8 incubated overnight by UPLC analysis; type: physicochemical; conditions: buffer
Homo sapiens = organism: Homo sapiens; experiment: Selectivity ratio of EC50 for human CTR expressed in Baby hamster kidney cells to EC50 for human AMY3R complex of CTR/RAMP3 expressed in Baby hamster kidney cells; type: cell-based
Calcitonin receptor [5] = target: T1, Calcitonin receptor; experiment: Agonist activity at human CTR expressed in Baby hamster kidney cells incubated for 3 hrs followed by medium replacement without compound measured after 30 mins by luciferase reporter assay; type: functional, cell-based, Baby hamster kidney cell
[6] = Solubility of compound at pH 5 incubated overnight by UPLC analysis; type: physicochemical; conditions: buffer
[7] = Solubility of compound at pH 7 incubated overnight by UPLC analysis; type: physicochemical; conditions: buffer
[8] = target: T2, Amylin receptor AMY3; CALCR/RAMP3 (Homo sapiens, UniProt O60896+P30988); experiment: Agonist activity at human AMY3R complex of CTR/RAMP3 expressed in Baby hamster kidney cells incubated for 3 hrs followed by medium replacement without compound measured after 30 mins by luciferase reporter assay; type: functional, cell-based, Baby hamster kidney cell
T2 sequence (P30988 whole entry): T1 sequence (P30988 whole entry)
T2 sequence (O60896 whole entry): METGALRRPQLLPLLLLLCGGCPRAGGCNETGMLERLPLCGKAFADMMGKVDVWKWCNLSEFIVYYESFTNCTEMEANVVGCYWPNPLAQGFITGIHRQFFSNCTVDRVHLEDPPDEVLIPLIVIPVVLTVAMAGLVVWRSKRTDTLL

[9] = Solubility of compound at pH 7.5 incubated overnight by UPLC analysis; type: physicochemical; conditions: buffer
[10] = Solubility of compound at pH 3 incubated overnight by UPLC analysis; type: physicochemical; conditions: buffer
[11] = Solubility of compound at pH 4 incubated overnight by UPLC analysis; type: physicochemical; conditions: buffer
[12] = Stability against amyloid fibril formation at pH 7.5 assessed as lag time at 1 uM measured after 45 hrs by ThT assay; type: physicochemical; conditions: pH 7.5, 45 h
[13] = Solubility of compound at pH 6.5 incubated overnight by UPLC analysis; type: physicochemical; conditions: buffer
Calcitonin receptor [14] = target: T3, Calcitonin receptor (Rattus norvegicus, UniProt P32214); experiment: Agonist activity at rat CTR expressed in Baby hamster kidney cells incubated for 3 hrs by cAMP assay; type: functional, cell-based, Baby hamster kidney cell
T3 sequence (P32214 whole entry): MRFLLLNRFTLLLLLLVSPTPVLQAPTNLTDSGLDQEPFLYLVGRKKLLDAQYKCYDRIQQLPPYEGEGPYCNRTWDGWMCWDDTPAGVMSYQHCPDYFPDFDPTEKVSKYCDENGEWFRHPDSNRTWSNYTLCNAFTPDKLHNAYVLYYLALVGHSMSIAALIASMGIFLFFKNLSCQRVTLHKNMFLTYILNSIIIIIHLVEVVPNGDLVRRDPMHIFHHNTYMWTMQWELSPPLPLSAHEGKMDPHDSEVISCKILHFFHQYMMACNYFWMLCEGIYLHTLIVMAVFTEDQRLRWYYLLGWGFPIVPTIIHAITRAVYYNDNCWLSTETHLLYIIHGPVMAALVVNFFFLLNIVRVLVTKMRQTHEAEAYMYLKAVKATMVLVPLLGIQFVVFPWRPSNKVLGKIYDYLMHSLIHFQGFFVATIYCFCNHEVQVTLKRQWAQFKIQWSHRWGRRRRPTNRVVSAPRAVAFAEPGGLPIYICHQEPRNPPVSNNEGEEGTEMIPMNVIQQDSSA

[15] = target: T4, Amylin receptor AMY3; CALCR/RAMP3 (Rattus norvegicus, UniProt P32214+Q9JJ73); experiment: Agonist activity at rat AMY3R complex of CTR/RAMP3 expressed in Baby hamster kidney cells incubated for 3 hrs by cAMP assay; type: functional, cell-based, Baby hamster kidney cell
T4 sequence (P32214 whole entry): T3 sequence (P32214 whole entry)
T4 sequence (Q9JJ73 whole entry): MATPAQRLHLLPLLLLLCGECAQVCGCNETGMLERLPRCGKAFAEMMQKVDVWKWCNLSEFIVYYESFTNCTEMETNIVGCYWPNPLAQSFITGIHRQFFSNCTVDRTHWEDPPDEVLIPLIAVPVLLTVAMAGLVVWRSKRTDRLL

Rattus norvegicus = organism: Rattus norvegicus; experiment: Selectivity ratio of EC50 for rat CTR expressed in Baby hamster kidney cells to EC50 for rat AMY3R complex of CTR/RAMP3 expressed in Baby hamster kidney cells; type: cell-based
[16] = target: T4, Amylin receptor AMY3; CALCR/RAMP3; experiment: Displacement of 125I-rat amylin from rat AMY3R complex of CTR/RAMP3 expressed in Baby hamster kidney cell membrane incubated for 120 mins by SPA method; type: cell membranes
Calcitonin receptor [17] = target: T3, Calcitonin receptor; experiment: Displacement of 125I-Calcitonin from rat CTR expressed in Baby hamster kidney cell membrane incubated for 120 mins by SPA method; type: cell membranes
[18] = target: T2, Amylin receptor AMY3; CALCR/RAMP3; experiment: Displacement of 125I-rat amylin from human AMY3R complex of CTR/RAMP3 expressed in Baby hamster kidney cell membrane incubated for 120 mins by SPA method; type: cell membranes

| SMILES | IC50 (Calcitonin receptor [1]) | Drug recovery [2] | solubility [3] | solubility [4] | Ratio EC50 (Homo sapiens) | EC50 (Calcitonin receptor [5]) | solubility [6] | solubility [7] | EC50 [8] | solubility [9] | solubility [10] | solubility [11] | Time [12] | solubility [13] | EC50 (Calcitonin receptor [14]) | EC50 [15] | Ratio EC50 (Rattus norvegicus) | IC50 [16] | IC50 (Calcitonin receptor [17]) | IC50 [18] |
| --- | --- | --- | --- | --- | --- | --- | --- | --- | --- | --- | --- | --- | --- | --- | --- | --- | --- | --- | --- | --- |
| CC(C)C[C@H](NC(=O)[C@H](CCCNC(=N)N)NC(=O)[C@H](CCC(N)=O)NC(=O)[C@@H](NC(=O)[C@H](C)NC(=O)[C@@H]1CSSC[C@H](NC(=O)[C@@H](N)CCCCN)C(=O)N[C@@H](CC(N)=O)C(=O)N[C@@H]([C@@H](C)O)C(=O)N[C@@H](C)C(=O)N[C@@H]([C@@H](C)O)C(=O)N1)[C@@H](C)O)C(=O)N[C@@H](C)C(=O)N[C@@H](CC(=O)O)C(=O)N[C@@H](Cc1ccccc1)C(=O)N[C@@H](CC(C)C)C(=O)N[C@@H](CCCNC(=N)N)C(=O)N[C@@H](Cc1c[nH]cn1)C(=O)N[C@@H](CO)C(=O)N[C@@H](CO)C(=O)N[C@@H](CCC(N)=O)C(=O)N[C@@H](CC(N)=O)C(=O)N[C@@H](Cc1ccccc1)C(=O)NCC(=O)N[C@@H](C)C(=O)N1CCC[C@H]1C(=O)N[C@@H](CC(C)C)C(=O)N[C@@H](CO)C(=O)N[C@@H](CO)C(=O)N[C@H](C(=O)N[C@@H](CC(N)=O)C(=O)N[C@H](C(=O)NCC(=O)N[C@@H](CO)C(=O)N1CCC[C@H]1C(=O)N[C@H](C(=O)N[C@@H](Cc1ccc(O)cc1)C(N)=O)[C@@H](C)O)C(C)C)[C@@H](C)O (H-KCNTATCATQRLADFLRHSSQNFGAPLSSTNVGSPTY-NH2; disulfide 2-7) | – | 0% | ≥ 200 µM | 15 µM (≈ 59.1 µg/mL) | 0.9 | 1.37 nM | ≥ 200 µM | 7 µM (≈ 27.6 µg/mL) | 1.54 nM | 7 µM (≈ 27.6 µg/mL) | ≥ 200 µM | ≥ 200 µM | 0 h | 75 µM (≈ 296 µg/mL) | – | – | – | – | – | – |
| CC(C)C[C@H](NC(=O)[C@H](CCCNC(=N)N)NC(=O)[C@H](CCC(N)=O)NC(=O)[C@@H](NC(=O)[C@H](C)NC(=O)[C@@H]1CSSC[C@H](NC(=O)[C@@H](N)CCCCN)C(=O)N[C@@H](CC(N)=O)C(=O)N[C@@H]([C@@H](C)O)C(=O)N[C@@H](C)C(=O)N[C@@H]([C@@H](C)O)C(=O)N1)[C@@H](C)O)C(=O)N[C@@H](C)C(=O)N[C@@H](CC(=O)O)C(=O)N[C@@H](Cc1ccccc1)C(=O)N[C@@H](CC(C)C)C(=O)N[C@@H](CCCNC(=N)N)C(=O)N[C@@H](Cc1c[nH]cn1)C(=O)N[C@@H](CO)C(=O)N[C@@H](CO)C(=O)N[C@@H](CCC(N)=O)C(=O)N[C@@H](CC(N)=O)C(=O)N[C@@H](Cc1ccccc1)C(=O)NCC(=O)N[C@@H](C)C(=O)N1CCC[C@H]1C(=O)N[C@@H](CC(C)C)C(=O)N[C@@H](CO)C(=O)N[C@@H](CO)C(=O)N[C@H](C(=O)N1CCC[C@H]1C(=O)N[C@H](C(=O)NCC(=O)N[C@@H](CO)C(=O)N[C@@H](CC(=O)O)C(=O)N[C@H](C(=O)N[C@@H](Cc1ccc(O)cc1)C(N)=O)[C@@H](C)O)C(C)C)[C@@H](C)O (H-KCNTATCATQRLADFLRHSSQNFGAPLSSTPVGSDTY-NH2; disulfide 2-7) | – | 100% | ≥ 200 µM | ≥ 200 µM | 3.9 | 0.697 nM | ≥ 200 µM | ≥ 200 µM | 0.18 nM | ≥ 200 µM | ≥ 200 µM | ≥ 200 µM | > 45 h | ≥ 200 µM | 14.3 nM | 0.463 nM | 31 | – | – | – |
| CC[C@H](C)[C@H](NC(=O)[C@H](C)NC(=O)CNC(=O)[C@H](Cc1ccccc1)NC(=O)[C@H](CC(N)=O)NC(=O)[C@@H]1CCCN1C(=O)[C@H](CO)NC(=O)[C@H](CO)NC(=O)[C@H](Cc1c[nH]cn1)NC(=O)[C@H](CCCNC(=N)N)NC(=O)[C@H](CC(C)C)NC(=O)[C@H](Cc1ccccc1)NC(=O)[C@H](CC(=O)O)NC(=O)[C@H](C)NC(=O)[C@H](CC(C)C)NC(=O)[C@H](CCCNC(=N)N)NC(=O)[C@H](CCC(N)=O)NC(=O)[C@@H](NC(=O)[C@H](C)NC(=O)[C@@H]1CSSC[C@H](NC(=O)[C@@H](N)CCCCN)C(=O)N[C@@H](CC(N)=O)C(=O)N[C@@H]([C@@H](C)O)C(=O)N[C@@H](C)C(=O)N[C@@H]([C@@H](C)O)C(=O)N1)[C@@H](C)O)C(=O)N1CCC[C@H]1C(=O)N[C@@H](CO)C(=O)N[C@@H](CO)C(=O)N[C@H](C(=O)N[C@@H](CC(N)=O)C(=O)N[C@H](C(=O)NCC(=O)N[C@@H](CO)C(=O)N[C@@H](CC(=O)O)C(=O)N[C@H](C(=O)N[C@@H](Cc1ccc(O)cc1)C(N)=O)[C@@H](C)O)C(C)C)[C@@H](C)O | 19.5 nM | 100% | ≥ 200 µM | ≥ 200 µM | – | 2.48 nM | ≥ 200 µM | ≥ 200 µM | 0.161 nM | ≥ 200 µM | ≥ 200 µM | ≥ 200 µM | > 45 h | 190 µM (≈ 747 µg/mL) | 861 nM | 0.643 nM | – | 0.217 nM | 96.9 nM | 0.355 nM |
